The source of these data is patent US20120121691A1, “Method for Increasing the Production of a Specific ACYL-Chain Dihydroceramide(s) for Improving the Effectiveness of Cancer Treatments” (priority 2010, published 2012).

Entries after “also recorded” stand apart in the source; their conditions may differ.

This series concerns pre-T acute lymphoblastic leukemia cell lines CCRF-CEM, MOLT-4, COG-LL-317 and COG-LL-332. In words: DIMSCAN cytotoxicity assay across the four pre-T ALL cell lines. Format: cell-based, human. To be noted: COG-LL-317, COG-LL-332, CCRF-CEM, 4-HPR 0-9 μM, 48 hours. An excerpt: Cell culture. The pre-T acute lymphoblastic leukemia cell lines MOLT-4 and CCRF-CEM, small cell lung cancer cell line NCI-H146, non-small cell lung cancer cell line NCI-H1792, colon cancer cell lines LoVo and HT-29, and breast cancer cell line MCF-7, were purchased from American Type Culture Collection, Manassas, Va., and grown at 20%/5% and 5%/5%, respectively. COG-LL-317 and COG-LL-332 pre-T acute lymphoblastic leukemia cell lines were obtained from the TTUHSC Cancer Center Cell Repository and grown at 5%/5%. Cell line identities were verified by short tandem repeat analysis and mycoplasma testing was performed. Cell lines were maintained in RPMI-1640 medium supplemented with 10% fetal bovine serum (FBS, Invitrogen) in humidified, 37° C. incubators. […]
Cytotoxicity Assay. Cytoxicity is determined using the DIMSCAN assay system (R. Proffitt et al., Cytometry 24, 204-213 (1996); T. Frgala et al., Proc. AACR, 36, 303 (1995). The system employs digital imaging microscopy to quantify viable cells, which selectively accumulate fluorescein diacetate to become brightly fluorescent. The system is capable of measuring cytotoxicity over a 4-5 log dynamic range by quenching the residual fluorescence of dead and dying cells with eosin Y and quantifying the total fluorescence of viable cells using digital thresholding. Measured fluorescence is directly proportionate to the number of viable cells. […]

As for `CCCCCCCCCCCCCCCCCCCCCC(=O)O` [C22:0-fatty acid], the “effect of fatty acid on fenretinide (4-HPR) cytotoxicity” value is on record as “enhanced; also recorded: significantly increased cytotoxicity”.
